Results published in patent US10189803B2, “Synthesis of therapeutic and diagnostic drugs centered on regioselective and stereoselective ring opening of aziridinium ions” (ILLINOIS INSTITUTE OF TECHNOLOGY, priority 2008, dated 2019).
Like-named read-outs stand apart in the source and are kept apart here.

Legend:
[1] = T1 relaxivity of Gd(III) complexes (Bruker mq60 NMR analyzer); assay type: physicochemical; details: aqueous Gd(III) complexes; for T1 relaxivity: pH 7, 59.97 MHz, 37° C.
Experimental: Gd(NE3TA) and Gd(NE3TA-Bn) were synthesized by reacting GdCl3 with NE3TA and NE3TA-Bn, respectively. NE3TA or NE3TA-Bn were mixed with GdCl3 in a molar ratio of 1 to 0.9, and the resulting mixture at pH 7 was heated to 90° C. and stirred until no free Gd(III) ions were detected using an ArsenazoIII (AAIII) assay. Relaxivity of the aqueous […] complexes (pH 7) was measured on a Bruker MQ60 NMR analyzer, and the concentration of the Gd(III) complexes was measured by ICP-MS. […] NE3TA was successfully conjugated with the most common bile acid, cholic acid (FIG. 41).
(§1) Relaxivity Measurements. Relaxivity measurements were acquired by taking the slope of a plot of 1/T1 (s^−1) versus concentration (mM). The longitudinal water proton relaxation times (T1) were determined using a Bruker mq60 NMR (Bruker Canada, Milton, ON, Canada) analyzer operating at 59.97 MHz and 37° C. The agent was added to Millipore water and serially diluted by 0.5 to give a series of 5 concentrations (500 μL total volume) for each relaxivity trial. The T1 was determined using an inversion recovery pulse sequence with 10 different pulse separations per sample, 4 repetitions per echo time, phase cycling, and a recycle delay that is ≥5 times the T1 of each given sample. All curves were fit using a monoexponential curve fitting formula.
Relaxivity of the aqueous Gd(III) complexes (˜pH 7) were measured on a Bruker MQ60 NMR analyzer, and the concentration of the Gd(III) complexes were measured by ICP-MS. […] As mentioned above, the on and off binding to Gd(III) of one of the pendant coordinates would have resulted enhanced relaxivity of Gd(C-NETA) compared to Gd(C-DOTA). Among the evaluated Gd(III) complexes, Gd(C-NE3TA) gives the highest T1 relaxivity at 60 MHz, probably due to increase in q. The relaxation rates for the Gd(III) chelates are dominated by the inner-sphere dipolar coupling between the coordinated water molecule and the paramagnetic Gd(III). The measured relaxivities arise from the exchange between the coordinated water molecule and the surrounding water molecules in solution. […] No indication of Gd(III) dissociation is evident from the relaxivity data, which is in agreement with the in vitro serum stability and in vivo biodistribution studies.
as §1, with “The T1 relaxivity was determined” for “The T1 was determined”

[2] = cited from earlier work
[3] = In vitro serum stability of radiolabeled C-NE3TA complexes in human serum (SE-HPLC); assay type: in vitro ADME; details: 37° C., up to 11 days
Experimental: C-NE3TA was radiolabeled with ^90Y, ^177Lu, ^203Pb, ^205/6Bi, or ^153Gd as previously described (Chong, H. S.; Milenic, D. E.; Garmestani, K.; Brady, E. D.; Arora, H.; Pfiester, C.; Brechbiel, M. W., Nucl. Med. Biol. 2006, 33, 459-67; Chong H S, Garmestani K, Bryant Jr., L H Milenic D E, Overstreet T, Birch N, Le N, Brady E D, Brechbiel M W. J. Med. Chem. 2006, 49, 2055-2062). In vitro serum stability of the radiolabeled complexes purified via ion-exchange chromatography was performed to determine if C-NE3TA labeled with the radioisotopes remained stable without transchelation or loss of their respective radionuclide in human serum. This was assessed by measuring the transfer of radionuclide from the complex to serum proteins over the course of 11 days.
In vitro stability of the radiolabeled metal complexes. The stability of the purified radiolabeled complexes was evaluated in human serum (Gemini Bioproducts, Woodland, Calif.) for up to 11 days. The serum stability of the radiolabeled complexes was assessed by measuring the transfer of the radionuclide from each complex to serum proteins using SE-HPLC methods. Radiolabeled complexes were diluted to an appropriate volume that allowed for preparation of multiple samples containing 5-10 μCi and were filter-sterilized using a Millex-GV 0.22 μm filter. This stock solution was then mixed with 1400 μL of sterile normal human serum. Aliquots (200 μL) were drawn and separated into individual tubes for subsequent analysis using aseptic technique. The samples were incubated at 37° C., and at designated intervals, subjected to analysis by SE-HPLC. Samples were loaded onto the HPLC and eluted with PBS, pH 7.4 isocratically at 1 mL/min. […] Radioactivity associated with a transfer to serum proteins generally appeared at ˜6 min.

[4] = In vivo biodistribution of radiolabeled complexes in normal athymic mice; details: for percent injected dose per gram, Blood / percent injected dose per gram, Femur / percent injected dose per gram, Heart / percent injected dose per gram, Kidney / percent injected dose per gram, Liver / percent injected dose per gram, Lung / percent injected dose per gram, Spleen: non-tumor bearing mice, ± SD
Experimental: The in vivo stability of the radiolabeled complexes was evaluated by performing biodistribution studies in normal athymic mice. Selected organs and the blood were harvested at five time points, 0.5, 1, 4, 8, and 24 h post-injection and the radioactivity measured. […] C-NE3TA radiolabeled with ^153Gd was almost completely cleared from blood, liver, spleen, lung, heart, and femur in less than 4 hours, and radioactivity level in the kidney was 0.16%±0.11 ID/g at 24 hour post-injection (Table 9).
In vivo biodistribution studies oh the radiolabeled metal complexes. Female athymic mice were obtained from Charles River Laboratories (Wilmington, Mass.) at 4-6 weeks of age. The pH of the radiolabeled ligands was adjusted to pH ˜7.0 with 0.5 M sodium bicarbonate (pH 10.5) and diluted in phosphate-buffered saline. The radiolabeled ligands ([…] for ^86Y, ^205/6Bi, ^177Lu, and ^203Pb) were administered to the mice in 200 μL of solution via tail vein injection. The mice (5 per data point) were sacrificed by exsanguination at 0.5, 1, 4, 8, and 24 h. Blood and the major organs were harvested, wet-weighed and the radioactivity measured in a γ-scintillation counter (1480 Wizard, Perkin Elmer). The percent injected dose per gram (% ID/g) was determined for each tissue. The values presented are the mean and standard deviation for each tissue.

O=C(O)CNC(Cc1ccc([N+](=O)[O-])cc1)CN1CCN(CC(=O)O)CCN(CC(=O)O)CC1.[Gd] (stereo not drawn) [Gd(C-NE3TA)]
T1 relaxivity of Gd(III) complexes of bifunctional ligands ([1]; ~pH 7, 60 MHz): 5.89 mM⁻¹ s⁻¹

O=C([O-])CN1CCN(CC(=O)[O-])CCN(CC(=O)O)CCN(CC(=O)[O-])CC1.[Gd+3] [Gd(DOTA), reference compound]
T1 relaxivity [1]: 2.97 mM⁻¹ s⁻¹

O=C(O)CNCCN1CCN(CC(=O)O)CCN(CC(=O)O)CC1.[Gd] [Gd(NE3TA)]
T1 relaxivity [1]: 3.94 mM⁻¹ s⁻¹

O=C(O)CN1CCN(CCN(CC(=O)O)CC(=O)O)CCN(CC(=O)O)CC1.[177Lu] [^177Lu-NETA]
organ uptake and blood clearance (in words) ([2]; in vivo): very low organ uptake and rapid blood clearance

O=C([O-])CNC(Cc1ccc([N+](=O)[O-])cc1)CN1CCN(CC(=O)[O-])CCN(CC(=O)[O-])CC1.[Bi+3] (stereo not drawn) [^205/6Bi-C-NE3TA]
stability in human serum (in words) [3]: no measurable loss of radioactivity | percent injected dose per gram, Blood ([4]; 0.50 hr): 0.46 ± 0.18 % ID/g | percent injected dose per gram, Femur ([4]; 0.50 hr): 0.62 ± 0.27 % ID/g | percent injected dose per gram, Heart ([4]; 0.50 hr): 0.36 ± 0.09 % ID/g | percent injected dose per gram, Kidney ([4]; 0.50 hr): 5.05±0.24 % ID/g | percent injected dose per gram, Liver ([4]; 0.50 hr): 1.01 ± 0.15 % ID/g | percent injected dose per gram, Lung ([4]; 0.50 hr): 0.56 ± 0.13 % ID/g | percent injected dose per gram, Spleen ([4]; 0.50 hr): 0.45 ± 0.24 % ID/g | percent injected dose per gram, Kidney ([4]; 0.50 hr, listed as 205/6BiC-NE3TA): 5.05 ± 0.24 % ID/g | percent injected dose per gram, Blood ([4]; 1.00 hr): 0.13 ± 0.02 % ID/g | percent injected dose per gram, Femur ([4]; 1.00 hr): 0.26 ± 0.05 % ID/g | percent injected dose per gram, Heart ([4]; 1.00 hr): 0.19 ± 0.02 % ID/g | percent injected dose per gram, Kidney ([4]; 1.00 hr): 4.69 ± 0.55 % ID/g | percent injected dose per gram, Liver ([4]; 1.00 hr): 0.80 ± 0.16 % ID/g | percent injected dose per gram, Lung ([4]; 1.00 hr): 0.25 ± 0.03 % ID/g | percent injected dose per gram, Spleen ([4]; 1.00 hr): 0.25 ± 0.02 % ID/g | percent injected dose per gram, Blood ([4]; 4.00 hr): 0.03 ± 0.00 % ID/g | percent injected dose per gram, Femur ([4]; 4.00 hr): 0.23 ± 0.06 % ID/g | percent injected dose per gram, Heart ([4]; 4.00 hr): 0.12 ± 0.01 % ID/g | percent injected dose per gram, Kidney ([4]; 4.00 hr): 3.42 ± 0.55 % ID/g | percent injected dose per gram, Liver ([4]; 4.00 hr): 0.52 ± 0.13 % ID/g | percent injected dose per gram, Lung ([4]; 4.00 hr): 0.16 ± 0.01 % ID/g | percent injected dose per gram, Spleen ([4]; 4.00 hr): 0.18 ± 0.01 % ID/g | percent injected dose per gram, Blood ([4]; 8.00 hr): 0.02 ± 0.01 % ID/g | percent injected dose per gram, Femur ([4]; 8.00 hr): 0.14 ± 0.02 % ID/g | percent injected dose per gram, Heart ([4]; 8.00 hr): 0.09 ± 0.01 % ID/g | percent injected dose per gram, Kidney ([4]; 8.00 hr): 1.99 ± 0.32 % ID/g | percent injected dose per gram, Liver ([4]; 8.00 hr): 0.37 ± 0.08 % ID/g | percent injected dose per gram, Lung ([4]; 8.00 hr): 0.13 ± 0.04 % ID/g | percent injected dose per gram, Spleen ([4]; 8.00 hr): 0.12 ± 0.02 % ID/g | percent injected dose per gram, Blood ([4]; 24.00 hr): 0.01 ± 0.00 % ID/g | percent injected dose per gram, Femur ([4]; 24.00 hr): 0.13 ± 0.01 % ID/g | percent injected dose per gram, Heart ([4]; 24.00 hr): 0.08 ± 0.02 % ID/g | percent injected dose per gram, Kidney ([4]; 24.00 hr): 0.73±0.19 % ID/g | percent injected dose per gram, Liver ([4]; 24.00 hr): 0.14 ± 0.03 % ID/g | percent injected dose per gram, Lung ([4]; 24.00 hr): 0.09 ± 0.01 % ID/g | percent injected dose per gram, Spleen ([4]; 24.00 hr): 0.13 ± 0.01 % ID/g | percent injected dose per gram, Kidney ([4]; 24.00 hr, listed as 205/6BiC-NE3TA): 0.73 ± 0.19 % ID/g | blood and organ clearance (in words) ([4]; normal athymic mice): rapidly cleared from the blood, lung, heart, and femur

O=C([O-])CN1CCN(CCN(CC(=O)[O-])CC(=O)[O-])CCN(CC(=O)[O-])CC1.[Bi+3] [^205/6Bi-NETA]
retention in liver ([2]; 0 h): 5.93±0.78 % ID/g | retention in liver ([2]; 24 h): 7.31±1.521 % ID/g
